Experimental data: ChEMBL document CHEMBL5465560, “Selectivity Literature for EUbOPEN Chemogenomic Library” (2024)
Blank lines part the entries; values can stand above or below the molecule they belong to.

Columns and labels:
[1] = molecular target: T1, Serine/threonine-protein kinase greatwall (Homo sapiens) (UniProt Q96GX5); test: Selectivity interaction (ActivX KiNativ screen (kinase selectivity in THP-1 cell lysates)) EUB0000639a MASTL; assay type: subcellular; conditions: lysate
T1 sequence (whole entry): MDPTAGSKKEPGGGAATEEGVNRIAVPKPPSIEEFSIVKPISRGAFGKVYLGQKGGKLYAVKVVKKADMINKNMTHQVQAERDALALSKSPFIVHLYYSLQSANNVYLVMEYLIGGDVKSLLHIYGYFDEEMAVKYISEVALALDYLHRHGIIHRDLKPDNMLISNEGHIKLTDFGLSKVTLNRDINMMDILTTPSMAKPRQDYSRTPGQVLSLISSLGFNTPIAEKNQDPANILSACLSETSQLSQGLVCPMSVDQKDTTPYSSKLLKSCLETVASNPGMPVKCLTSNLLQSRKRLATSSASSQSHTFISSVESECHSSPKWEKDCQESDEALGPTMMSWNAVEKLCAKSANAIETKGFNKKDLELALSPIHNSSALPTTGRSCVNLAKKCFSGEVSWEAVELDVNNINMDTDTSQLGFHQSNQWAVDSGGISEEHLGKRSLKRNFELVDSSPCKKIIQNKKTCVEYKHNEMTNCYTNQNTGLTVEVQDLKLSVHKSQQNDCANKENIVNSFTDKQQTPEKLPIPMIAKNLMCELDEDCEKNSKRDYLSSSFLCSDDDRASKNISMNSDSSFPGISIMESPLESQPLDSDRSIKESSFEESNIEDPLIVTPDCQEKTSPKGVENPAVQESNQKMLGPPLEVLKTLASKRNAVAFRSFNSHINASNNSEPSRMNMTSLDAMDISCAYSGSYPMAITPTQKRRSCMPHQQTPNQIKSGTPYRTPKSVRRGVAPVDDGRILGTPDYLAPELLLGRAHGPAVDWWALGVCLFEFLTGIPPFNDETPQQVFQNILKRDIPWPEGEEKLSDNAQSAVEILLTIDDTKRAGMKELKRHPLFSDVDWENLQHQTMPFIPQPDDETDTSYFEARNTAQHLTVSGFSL

[2] = molecular target: Histone-lysine N-methyltransferase, H3 lysine-36 specific (Homo sapiens) (UniProt Q96L73); test: Selectivity interaction (Methyltransferase screen (Scintillation proximity assays)) EUB0000255b NSD1
[3] = molecular target: T2, MAP kinase-activated protein kinase 5 (Homo sapiens) (UniProt Q8IW41); test: Selectivity interaction (KinaseProfiler screening (Millipore)) EUB0000601a MAPKAPK5; conditions: at 3 µM
T2 sequence (whole entry): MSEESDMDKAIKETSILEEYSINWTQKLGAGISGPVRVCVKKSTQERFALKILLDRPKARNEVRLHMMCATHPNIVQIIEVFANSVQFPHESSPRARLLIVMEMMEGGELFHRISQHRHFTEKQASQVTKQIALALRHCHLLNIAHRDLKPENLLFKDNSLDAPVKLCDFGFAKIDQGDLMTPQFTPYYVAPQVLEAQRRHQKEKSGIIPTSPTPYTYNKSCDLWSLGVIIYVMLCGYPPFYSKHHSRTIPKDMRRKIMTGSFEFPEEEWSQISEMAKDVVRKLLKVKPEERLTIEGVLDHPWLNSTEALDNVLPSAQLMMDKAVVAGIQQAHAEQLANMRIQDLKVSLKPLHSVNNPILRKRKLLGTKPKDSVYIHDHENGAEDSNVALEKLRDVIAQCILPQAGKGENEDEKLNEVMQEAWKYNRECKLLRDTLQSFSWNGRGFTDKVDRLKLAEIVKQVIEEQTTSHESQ

[4] = molecular target: SRSF protein kinase 1 (Homo sapiens, UniProt Q96SB4); test: Selectivity interaction (Ambit KINOMEscan and KiNATiv profiling in Jurkat cells) EUB0000090b SRPK1; assay type: cell-based; conditions: at 1 µM
[5] = molecular target: Cyclin-dependent kinase 5 (Homo sapiens, UniProt Q00535); test: Selectivity interaction (Kinase panel (KiNativ target engagement assay in Jurkat cells)) EUB0001635a CDK5; assay type: cell-based; conditions: at 1 µM
[6] = molecular target: T3, Peripheral plasma membrane protein CASK (Homo sapiens) (UniProt O14936); conditions: at 10 µM
T3 sequence (whole entry): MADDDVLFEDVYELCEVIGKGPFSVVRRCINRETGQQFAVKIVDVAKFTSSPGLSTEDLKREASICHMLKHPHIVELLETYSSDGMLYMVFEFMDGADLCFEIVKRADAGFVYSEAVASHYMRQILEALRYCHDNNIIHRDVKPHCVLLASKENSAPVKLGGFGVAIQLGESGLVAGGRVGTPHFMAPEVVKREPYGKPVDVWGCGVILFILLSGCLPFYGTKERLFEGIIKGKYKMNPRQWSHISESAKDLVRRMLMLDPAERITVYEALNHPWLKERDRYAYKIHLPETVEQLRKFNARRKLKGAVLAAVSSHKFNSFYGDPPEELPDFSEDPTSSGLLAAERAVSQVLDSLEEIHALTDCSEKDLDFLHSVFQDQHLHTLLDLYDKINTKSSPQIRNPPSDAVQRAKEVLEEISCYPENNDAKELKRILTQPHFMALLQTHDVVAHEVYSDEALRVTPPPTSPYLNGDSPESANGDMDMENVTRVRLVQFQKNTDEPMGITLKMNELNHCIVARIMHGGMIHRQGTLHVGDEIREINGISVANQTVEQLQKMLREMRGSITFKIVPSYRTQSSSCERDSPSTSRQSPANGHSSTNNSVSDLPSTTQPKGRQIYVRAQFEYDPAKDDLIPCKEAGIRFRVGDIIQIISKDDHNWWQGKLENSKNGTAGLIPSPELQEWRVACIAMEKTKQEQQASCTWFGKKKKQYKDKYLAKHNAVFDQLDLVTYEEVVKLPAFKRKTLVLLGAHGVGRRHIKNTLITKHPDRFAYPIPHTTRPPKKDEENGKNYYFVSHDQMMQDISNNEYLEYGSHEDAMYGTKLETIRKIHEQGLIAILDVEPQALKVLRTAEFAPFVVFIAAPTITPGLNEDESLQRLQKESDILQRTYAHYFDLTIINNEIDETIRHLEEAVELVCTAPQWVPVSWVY

[7] = molecular target: TGF-beta receptor type-2 (Homo sapiens) (UniProt P37173); test: Selectivity interaction (KinomeScan (DiscoverX)) EUB0000618a TGFBR2; conditions: at 10 µM
[8] = molecular target: Ribosomal protein S6 kinase beta-2 (Homo sapiens) (UniProt Q9UBS0); test: Selectivity interaction (ActivX KiNativ screen (ex vivo kinase selectivity in human PBMCs)) EUB0001619a RPS6KB2; assay type: cell-based; conditions: PBMC, at 1 µM
[9] = molecular target: Mitogen-activated protein kinase kinase kinase 9 (Homo sapiens) (UniProt P80192); test: Selectivity interaction (KinomeScan (DiscoverX)) EUB0001619a MAP3K9; conditions: at 1 µM

Chain of Histone-lysine N-methyltransferase, H3 lysine-36 specific (Homo sapiens) (Q96L73 whole entry): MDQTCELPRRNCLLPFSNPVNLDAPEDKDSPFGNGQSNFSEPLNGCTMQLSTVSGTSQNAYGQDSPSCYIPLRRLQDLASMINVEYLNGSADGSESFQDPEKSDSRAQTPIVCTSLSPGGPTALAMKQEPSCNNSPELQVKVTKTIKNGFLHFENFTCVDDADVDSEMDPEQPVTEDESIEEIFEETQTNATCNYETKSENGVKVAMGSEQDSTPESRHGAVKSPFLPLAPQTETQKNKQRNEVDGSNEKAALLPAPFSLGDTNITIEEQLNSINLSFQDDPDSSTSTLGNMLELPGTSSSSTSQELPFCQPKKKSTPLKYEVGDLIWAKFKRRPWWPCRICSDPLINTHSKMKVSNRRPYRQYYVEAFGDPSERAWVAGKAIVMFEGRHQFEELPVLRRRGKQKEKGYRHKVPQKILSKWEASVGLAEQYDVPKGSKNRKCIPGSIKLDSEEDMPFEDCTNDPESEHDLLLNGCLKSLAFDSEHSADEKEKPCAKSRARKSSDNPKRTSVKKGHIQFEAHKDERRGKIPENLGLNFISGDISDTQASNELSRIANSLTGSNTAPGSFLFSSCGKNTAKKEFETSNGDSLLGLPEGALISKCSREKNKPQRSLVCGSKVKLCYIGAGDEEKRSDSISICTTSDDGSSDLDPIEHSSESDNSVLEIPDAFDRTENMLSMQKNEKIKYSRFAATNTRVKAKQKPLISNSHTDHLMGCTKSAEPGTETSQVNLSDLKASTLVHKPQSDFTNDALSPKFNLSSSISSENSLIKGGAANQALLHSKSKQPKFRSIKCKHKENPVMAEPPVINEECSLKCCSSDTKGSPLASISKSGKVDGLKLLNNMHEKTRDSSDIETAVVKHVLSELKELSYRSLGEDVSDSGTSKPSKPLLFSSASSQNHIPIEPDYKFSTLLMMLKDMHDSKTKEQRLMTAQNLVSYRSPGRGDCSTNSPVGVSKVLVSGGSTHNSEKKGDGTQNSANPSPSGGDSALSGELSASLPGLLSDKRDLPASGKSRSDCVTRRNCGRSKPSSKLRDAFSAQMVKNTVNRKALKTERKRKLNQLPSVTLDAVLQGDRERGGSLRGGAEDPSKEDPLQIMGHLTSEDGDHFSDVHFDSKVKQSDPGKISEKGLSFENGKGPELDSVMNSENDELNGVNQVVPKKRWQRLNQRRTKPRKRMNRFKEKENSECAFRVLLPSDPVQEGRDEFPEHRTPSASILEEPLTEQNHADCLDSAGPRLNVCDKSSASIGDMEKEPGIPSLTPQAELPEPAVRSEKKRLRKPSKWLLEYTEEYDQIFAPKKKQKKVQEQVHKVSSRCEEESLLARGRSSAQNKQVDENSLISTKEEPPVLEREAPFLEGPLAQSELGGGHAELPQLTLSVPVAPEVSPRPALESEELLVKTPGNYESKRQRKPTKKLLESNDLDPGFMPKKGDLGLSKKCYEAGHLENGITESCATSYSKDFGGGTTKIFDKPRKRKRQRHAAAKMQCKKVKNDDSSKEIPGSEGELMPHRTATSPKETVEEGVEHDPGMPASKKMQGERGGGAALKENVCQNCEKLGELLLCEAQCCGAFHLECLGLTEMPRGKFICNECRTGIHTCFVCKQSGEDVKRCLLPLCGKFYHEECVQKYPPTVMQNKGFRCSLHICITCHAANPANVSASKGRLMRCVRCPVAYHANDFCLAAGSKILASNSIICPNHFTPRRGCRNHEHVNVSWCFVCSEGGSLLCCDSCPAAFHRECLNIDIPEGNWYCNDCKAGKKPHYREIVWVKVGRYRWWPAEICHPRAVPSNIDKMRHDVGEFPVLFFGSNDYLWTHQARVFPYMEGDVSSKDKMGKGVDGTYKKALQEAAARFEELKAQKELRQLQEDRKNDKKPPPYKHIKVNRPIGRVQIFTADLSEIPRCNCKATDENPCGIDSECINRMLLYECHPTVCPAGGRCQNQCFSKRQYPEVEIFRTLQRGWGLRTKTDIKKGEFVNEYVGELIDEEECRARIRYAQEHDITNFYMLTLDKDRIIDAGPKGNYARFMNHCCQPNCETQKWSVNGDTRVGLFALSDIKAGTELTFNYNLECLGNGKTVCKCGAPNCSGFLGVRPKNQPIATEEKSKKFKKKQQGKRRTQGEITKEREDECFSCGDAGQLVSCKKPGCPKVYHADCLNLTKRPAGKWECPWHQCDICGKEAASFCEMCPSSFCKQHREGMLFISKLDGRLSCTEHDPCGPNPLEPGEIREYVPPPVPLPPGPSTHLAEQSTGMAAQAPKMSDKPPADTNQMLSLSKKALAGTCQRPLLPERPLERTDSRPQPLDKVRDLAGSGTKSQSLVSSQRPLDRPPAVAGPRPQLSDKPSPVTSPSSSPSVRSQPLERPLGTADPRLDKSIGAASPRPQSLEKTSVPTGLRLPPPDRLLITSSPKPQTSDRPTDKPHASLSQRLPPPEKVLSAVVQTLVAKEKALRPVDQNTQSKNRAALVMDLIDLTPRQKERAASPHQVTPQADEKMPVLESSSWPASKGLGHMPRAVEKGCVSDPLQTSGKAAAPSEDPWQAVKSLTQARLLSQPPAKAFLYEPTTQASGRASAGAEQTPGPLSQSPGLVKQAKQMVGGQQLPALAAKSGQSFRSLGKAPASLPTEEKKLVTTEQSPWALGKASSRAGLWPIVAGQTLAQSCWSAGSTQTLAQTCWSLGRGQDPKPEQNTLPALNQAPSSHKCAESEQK
Chain of Cyclin-dependent kinase 5 (Q00535 whole entry, looked up): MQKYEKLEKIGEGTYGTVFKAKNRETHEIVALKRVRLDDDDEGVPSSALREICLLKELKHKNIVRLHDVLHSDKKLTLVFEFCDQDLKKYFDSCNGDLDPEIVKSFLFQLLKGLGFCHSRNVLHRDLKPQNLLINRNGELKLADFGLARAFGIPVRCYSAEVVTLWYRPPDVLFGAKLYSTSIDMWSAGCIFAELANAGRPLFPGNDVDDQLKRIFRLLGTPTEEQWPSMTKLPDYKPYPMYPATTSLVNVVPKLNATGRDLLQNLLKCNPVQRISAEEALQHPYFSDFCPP
Chain of SRSF protein kinase 1 (Q96SB4 whole entry): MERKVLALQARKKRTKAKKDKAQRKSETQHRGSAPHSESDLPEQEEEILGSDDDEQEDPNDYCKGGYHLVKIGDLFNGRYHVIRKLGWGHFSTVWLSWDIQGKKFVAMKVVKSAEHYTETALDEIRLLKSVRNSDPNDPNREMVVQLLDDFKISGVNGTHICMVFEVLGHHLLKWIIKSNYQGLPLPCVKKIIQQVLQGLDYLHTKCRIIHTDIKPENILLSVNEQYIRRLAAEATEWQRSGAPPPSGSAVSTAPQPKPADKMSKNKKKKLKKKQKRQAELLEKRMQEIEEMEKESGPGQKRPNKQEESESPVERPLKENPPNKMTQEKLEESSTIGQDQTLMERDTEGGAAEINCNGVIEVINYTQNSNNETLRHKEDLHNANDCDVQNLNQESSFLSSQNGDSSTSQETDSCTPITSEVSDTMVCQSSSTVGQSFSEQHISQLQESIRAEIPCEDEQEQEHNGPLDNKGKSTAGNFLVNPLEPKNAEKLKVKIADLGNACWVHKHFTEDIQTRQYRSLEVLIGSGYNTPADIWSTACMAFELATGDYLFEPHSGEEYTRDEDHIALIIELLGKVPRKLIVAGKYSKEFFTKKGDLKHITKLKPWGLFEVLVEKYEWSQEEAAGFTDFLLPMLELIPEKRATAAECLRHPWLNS
Chain of Ribosomal protein S6 kinase beta-2 (Homo sapiens) (Q9UBS0 whole entry): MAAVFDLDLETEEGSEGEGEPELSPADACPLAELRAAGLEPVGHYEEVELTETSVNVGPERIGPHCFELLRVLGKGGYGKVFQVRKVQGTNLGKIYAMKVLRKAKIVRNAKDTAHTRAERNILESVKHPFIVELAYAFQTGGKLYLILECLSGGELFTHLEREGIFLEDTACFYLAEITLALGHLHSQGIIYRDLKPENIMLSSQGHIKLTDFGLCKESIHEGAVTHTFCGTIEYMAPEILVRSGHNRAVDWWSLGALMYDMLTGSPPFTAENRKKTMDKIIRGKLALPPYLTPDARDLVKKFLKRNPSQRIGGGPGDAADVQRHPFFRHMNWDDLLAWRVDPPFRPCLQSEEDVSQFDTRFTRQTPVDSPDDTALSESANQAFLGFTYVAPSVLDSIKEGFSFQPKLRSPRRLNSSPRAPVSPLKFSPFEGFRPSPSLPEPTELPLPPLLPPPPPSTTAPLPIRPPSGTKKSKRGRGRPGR
Chain of TGF-beta receptor type-2 (Homo sapiens) (P37173 whole entry): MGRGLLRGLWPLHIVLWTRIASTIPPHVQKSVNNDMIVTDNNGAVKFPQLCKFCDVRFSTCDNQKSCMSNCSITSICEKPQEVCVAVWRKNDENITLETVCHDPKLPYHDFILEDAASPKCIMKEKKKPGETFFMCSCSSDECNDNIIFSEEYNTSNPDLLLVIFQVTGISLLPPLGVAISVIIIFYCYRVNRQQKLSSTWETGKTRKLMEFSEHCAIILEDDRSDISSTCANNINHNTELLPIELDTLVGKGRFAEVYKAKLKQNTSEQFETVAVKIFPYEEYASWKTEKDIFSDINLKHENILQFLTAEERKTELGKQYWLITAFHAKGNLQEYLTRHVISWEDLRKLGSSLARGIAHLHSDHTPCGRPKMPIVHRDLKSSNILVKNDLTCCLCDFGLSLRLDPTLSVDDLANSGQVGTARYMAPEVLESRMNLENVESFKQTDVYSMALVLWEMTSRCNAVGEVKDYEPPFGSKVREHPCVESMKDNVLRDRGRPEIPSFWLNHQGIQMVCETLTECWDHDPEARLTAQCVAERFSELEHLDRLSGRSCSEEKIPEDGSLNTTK

% of inhibition ([1]; at 0.01 µM): -10.8%
% of inhibition ([1]; at 0.04 µM): 0.7%
% of inhibition ([1]; at 0.2 µM): 12.7%
% of inhibition ([1]; at 1 µM): 37.8%
% of inhibition ([1]; at 5 µM): 78.5%
SMILES: CC[C@@H]1[C@H](F)C(=O)N[C@@H]1COc1nccc2cc(C(N)=O)c(OC)cc12 [ZIMLOVISERTIB]

SMILES: COCCN1CCC(c2cc(CN(C)C(=O)c3cccc(Oc4ccccc4)c3)ccn2)CC1
% activity ([2]; at 1 µM): > 95%
% activity ([2]; at 10 µM): > 90%

% of inhibition [3]: 35%
SMILES: CCc1cc(Nc2nccc(-c3c(-c4ccc(OC)c(C(=O)Nc5c(F)cccc5F)c4)nc4ccccn34)n2)c(OC)cc1N1CCC(N2CCN(S(C)(=O)=O)CC2)CC1

SMILES: CN(C)C/C=C/C(=O)Nc1ccc(C(=O)N2CCCC(Nc3ncc(Cl)c(-c4c[nH]c5ccccc45)n3)C2)cc1 (stereo not given)
% of control [4]: 52%

SMILES: C=CC(=O)Nc1ccc(C(=O)Nc2[nH]nc3c2CN(C(=O)N[C@H](CN(C)C)c2ccccc2)C3(C)C)cc1
% of engagement ([5]; Selectivity number of off-targets 0.0, Selectivity number of targets 233.0, Source Knowledge https://www.sciencedirect.com/science/article/pii/S2451945619300674?via%3Dihub): -1.7%
% of engagement [5]: 0.4%

SMILES: Cc1cc([C@@H](C)Nc2ccccc2C(=O)O)c2nc(N3CCOCC3)cc(=O)n2c1 [AZD-6482]
% of control [6]: 92%

SMILES: O[C@H]1CC[C@H](Nc2ncc3nc(Nc4c(F)cc(F)cc4F)n([C@H]4CCOC4)c3n2)CC1
% of control [7]: 71%

SMILES: N#Cc1cccc(-c2c[nH]c3ncnc(N4CCOCC4)c23)c1
% of inhibition [8]: -10%
% of control [9]: 72%
